Data: ChEMBL document CHEMBL1149262, “Monoamine transporter binding, locomotor activity, and drug discrimination properties of 3-(4-substituted-phenyl)tropane-2-carboxylic acid methyl ester isomers” (J Med Chem, 2004)
Active and inactive are the calls of the source. No cut-off for these calls is given here.

What was measured:
[1] = biological target: Sodium-dependent noradrenaline transporter (Homo sapiens, UniProt P23975); test: Displacement of [3H]nisoxetine from NET
Mus musculus [2] = test: Locomotor activity in CD1 mouse assessed as stimulation at 10 mg/kg, ip after 2 hrs relative to control; type: functional; settings: route intraperitoneal
[3] = biological target: Sodium-dependent dopamine transporter (Homo sapiens, UniProt Q01959); test: Displacement of [3H]WIN-35428 from DAT
Mus musculus [4] = test: Locomotor activity in CD1 mouse assessed as stimulation at 100 mg/kg, ip after 1 hr relative to control; type: functional; settings: route intraperitoneal
Rattus norvegicus [5] = test: Cocaine discrimination in ip dosed CD Albino rat; type: functional
Mus musculus [6] = test: Activity in CD1 mouse assessed as stereotypy at 100 mg/kg, ip after 4 hrs; type: functional, organism-based; design: dose 100 mg/kg
Rattus norvegicus [7] = test: Drug discrimination effect in CD Albino rat assessed as percent of rat choosing cocaine lever at 1 mg/kg, ip; type: functional; settings: route intraperitoneal
Rattus norvegicus [8] = test: Drug discrimination effect in CD Albino rat assessed as percent of rat choosing cocaine lever at 5.6 mg/kg, ip; type: functional; settings: route intraperitoneal
Mus musculus [9] = test: Locomotor activity in CD1 mouse assessed as stimulation at 3 mg/kg, ip after 1 hr relative to control; type: functional; settings: route intraperitoneal
Mus musculus [10] = test: Locomotor activity in CD1 mouse assessed as stimulation at 30 mg/kg, ip after 4 hrs relative to control; type: functional; settings: route intraperitoneal
Rattus norvegicus [11] = test: Drug discrimination effect in CD Albino rat assessed as percent of rat choosing cocaine lever at 1.7 mg/kg, ip; type: functional; settings: route intraperitoneal
Mus musculus [12] = test: Locomotor activity in CD1 mouse assessed as stimulation at 30 mg/kg, ip after 1 hr relative to control; type: functional; settings: route intraperitoneal
Mus musculus [13] = test: Locomotor activity in CD1 mouse assessed as stimulation at 3 mg/kg, ip after 3 hrs relative to control; type: functional; settings: route intraperitoneal
Mus musculus [14] = test: Locomotor activity in CD1 mouse assessed as stimulation at 30 mg/kg, ip after 2 hrs relative to control; type: functional; settings: route intraperitoneal
Mus musculus [15] = test: Activity in CD1 mouse assessed as circling at 100 mg/kg, ip after 4 hrs; type: functional, organism-based; design: dose 100 mg/kg
Mus musculus [16] = test: Activity in CD1 mouse assessed as hyperactivity at 100 mg/kg, ip after 4 hrs; type: functional, organism-based; design: dose 100 mg/kg
Rattus norvegicus [17] = test: Drug discrimination effect in CD Albino rat assessed as percent of rat choosing cocaine lever at 10 mg/kg, ip; type: functional; settings: route intraperitoneal
Mus musculus [18] = test: Locomotor activity in CD1 mouse assessed as stimulation at 100 mg/kg, ip after 4 hrs relative to control; type: functional; settings: route intraperitoneal
Mus musculus [19] = test: Locomotor activity in CD1 mouse assessed as stimulation at 3 mg/kg, ip after 2 hrs relative to control; type: functional; settings: route intraperitoneal
Mus musculus [20] = test: Locomotor activity in CD1 mouse assessed as stimulation at 100 mg/kg, ip after 3 hrs relative to control; type: functional; settings: route intraperitoneal
Mus musculus [21] = test: Locomotor activity in CD1 mouse assessed as stimulation at 10 mg/kg, ip after 4 hrs relative to control; type: functional; settings: route intraperitoneal
Mus musculus [22] = test: Locomotor activity in CD1 mouse assessed as stimulation at 30 mg/kg, ip after 3 hrs relative to control; type: functional; settings: route intraperitoneal
Rattus norvegicus [23] = test: Drug discrimination effect in CD Albino rat assessed as percent of rat choosing cocaine lever at 30 mg/kg, ip; type: functional; settings: route intraperitoneal
Rattus norvegicus [24] = test: Drug discrimination effect in CD Albino rat assessed as percent of rat choosing cocaine lever at 17 mg/kg, ip; type: functional; settings: route intraperitoneal
Mus musculus [25] = test: Locomotor activity in CD1 mouse assessed as stimulation at 10 mg/kg, ip after 3 hrs relative to control; type: functional; settings: route intraperitoneal
Mus musculus [26] = test: Locomotor activity in ip dosed CD1 mouse in peak hour; type: functional
Mus musculus [27] = test: Locomotor activity in CD1 mouse assessed as stimulation at 10 mg/kg, ip after 1 hr relative to control; type: functional; settings: route intraperitoneal
Mus musculus [28] = test: Locomotor activity in CD1 mouse assessed as stimulation at 100 mg/kg, ip after 2 hrs relative to control; type: functional; settings: route intraperitoneal
Mus musculus [29] = test: Activity in CD1 mouse assessed as slight or intermittent hyperactivity at 10 mg/kg, ip after 4 hrs; type: functional, organism-based; design: dose 10 mg/kg
Mus musculus [30] = test: Locomotor activity in CD1 mouse assessed as stimulation at 3 mg/kg, ip after 4 hrs relative to control; type: functional; settings: route intraperitoneal
Rattus norvegicus [31] = test: Drug discrimination effect in CD Albino rat assessed as percent of rat choosing cocaine lever at 3 mg/kg, ip; type: functional; settings: route intraperitoneal
Mus musculus [32] = test: Locomotor activity in CD1 mouse assessed as stimulation at 1 mg/kg, ip after 3 hrs relative to control; type: functional; settings: route intraperitoneal
Mus musculus [33] = test: Activity in CD1 mouse assessed as hind limb splay at 100 mg/kg, ip after 4 hrs; type: functional, organism-based; design: dose 100 mg/kg; settings: Hindlimb
Mus musculus [34] = test: Activity in CD1 mouse assessed as death at 100 mg/kg, ip after 4 hrs; type: functional, organism-based; design: dose 100 mg/kg
Mus musculus [35] = test: Activity in CD1 mouse assessed as convulsions at 100 mg/kg, ip after 4 hrs; type: functional, organism-based; design: dose 100 mg/kg
Mus musculus [36] = test: Activity in CD1 mouse assessed as ptosis at 100 mg/kg, ip after 4 hrs; type: functional, organism-based; design: dose 100 mg/kg
Mus musculus [37] = test: Activity in CD1 mouse assessed as flattened body posture at 100 mg/kg, ip after 4 hrs; type: functional, organism-based; design: dose 100 mg/kg
Mus musculus [38] = test: Locomotor activity in CD1 mouse assessed as stimulation at 1 mg/kg, ip after 4 hrs relative to control; type: functional; settings: route intraperitoneal
Mus musculus [39] = test: Locomotor activity in CD1 mouse assessed as stimulation at 1 mg/kg, ip after 2 hrs relative to control; type: functional; settings: route intraperitoneal
Mus musculus [40] = test: Locomotor activity in CD1 mouse assessed as stimulation at 1 mg/kg, ip after 1 hr relative to control; type: functional; settings: route intraperitoneal
Mus musculus [41] = test: Activity in CD1 mouse assessed as tremor at 100 mg/kg, ip after 4 hrs; type: functional, organism-based; design: dose 100 mg/kg
Mus musculus [42] = test: Activity in CD1 mouse assessed as stimulation at 100 mg/kg, ip after 4 hrs; type: functional, organism-based; design: dose 100 mg/kg
Mus musculus [43] = test: Activity in CD1 mouse assessed as ataxia at 100 mg/kg, ip after 4 hrs; type: functional, organism-based; design: dose 100 mg/kg

Sequence of Sodium-dependent noradrenaline transporter (P23975 whole entry): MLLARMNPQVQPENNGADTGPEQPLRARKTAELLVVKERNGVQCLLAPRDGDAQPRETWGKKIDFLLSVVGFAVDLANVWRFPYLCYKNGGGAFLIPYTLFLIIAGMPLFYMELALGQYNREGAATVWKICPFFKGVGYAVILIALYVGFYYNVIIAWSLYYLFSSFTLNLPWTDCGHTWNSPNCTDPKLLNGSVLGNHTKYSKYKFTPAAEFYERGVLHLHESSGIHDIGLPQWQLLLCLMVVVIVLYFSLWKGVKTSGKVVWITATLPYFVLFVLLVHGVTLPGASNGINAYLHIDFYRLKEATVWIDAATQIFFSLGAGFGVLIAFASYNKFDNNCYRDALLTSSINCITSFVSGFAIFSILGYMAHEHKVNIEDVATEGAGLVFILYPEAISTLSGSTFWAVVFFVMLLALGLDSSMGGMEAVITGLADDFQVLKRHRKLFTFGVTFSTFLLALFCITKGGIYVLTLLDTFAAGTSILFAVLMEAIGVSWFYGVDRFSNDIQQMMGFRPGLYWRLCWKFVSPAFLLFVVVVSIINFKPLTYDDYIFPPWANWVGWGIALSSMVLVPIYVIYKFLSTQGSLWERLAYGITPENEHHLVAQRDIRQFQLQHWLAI
Sequence of Sodium-dependent dopamine transporter (Q01959 whole entry): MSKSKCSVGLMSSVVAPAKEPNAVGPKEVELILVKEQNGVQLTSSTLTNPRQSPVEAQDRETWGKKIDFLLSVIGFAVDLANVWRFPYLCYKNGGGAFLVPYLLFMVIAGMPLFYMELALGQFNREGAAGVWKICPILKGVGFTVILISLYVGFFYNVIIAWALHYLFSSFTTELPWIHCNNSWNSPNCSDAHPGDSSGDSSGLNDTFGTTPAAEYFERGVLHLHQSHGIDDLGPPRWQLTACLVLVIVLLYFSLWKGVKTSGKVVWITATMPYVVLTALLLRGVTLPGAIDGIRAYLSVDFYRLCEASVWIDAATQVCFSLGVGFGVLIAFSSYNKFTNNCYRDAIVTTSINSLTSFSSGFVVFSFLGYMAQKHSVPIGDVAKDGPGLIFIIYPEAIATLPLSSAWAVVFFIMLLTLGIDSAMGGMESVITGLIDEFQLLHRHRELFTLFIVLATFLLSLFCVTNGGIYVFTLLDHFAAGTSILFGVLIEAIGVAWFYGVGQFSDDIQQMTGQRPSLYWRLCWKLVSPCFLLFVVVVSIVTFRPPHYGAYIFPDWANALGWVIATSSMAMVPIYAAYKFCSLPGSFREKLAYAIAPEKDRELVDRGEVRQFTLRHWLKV

Compound | IC50 [1] [nM] | Ki [1] [nM] | Activity (Mus musculus [2]) [%] | IC50 [3] [nM] | ED50 (Rattus norvegicus [5]) [mg/kg] | Activity (Rattus norvegicus [7]) [%] | Activity (Rattus norvegicus [8]) [%] | Activity (Mus musculus [9]) [%] | Activity (Mus musculus [10]) [%] | Activity (Mus musculus [12]) [%] | Activity (Mus musculus [13]) [%] | Activity (Mus musculus [14]) [%] | Activity (Mus musculus [15]) | Activity (Rattus norvegicus [17]) [%] | Activity (Mus musculus [19]) [%] | Activity (Mus musculus [21]) [%] | Activity (Mus musculus [22]) [%] | Activity (Mus musculus [25]) [%] | Activity (Mus musculus [27]) [%] | Activity (Mus musculus [30]) [%] | also measured
COC(=O)[C@@H]1C2CCC(C[C@H]1c1ccc(C)cc1)N2C (some centres undefined) | 270 | 160 | 149 | 10.2 | 7.73 | 0 | 43 | 28 | -66 | 482 | -6 | 147 | Active | 43 | 29 | 22 | 5 | 108 | 294 | -41 | Activity (Mus musculus [4]): 843%; Activity (Mus musculus [6]): Active; Activity (Rattus norvegicus [11]): 14%; Activity (Mus musculus [16]): Active; Activity (Mus musculus [18]): 18%; Activity (Mus musculus [20]): 263%; Activity (Rattus norvegicus [23]): 100%; Activity (Rattus norvegicus [24]): 75%; ED50 (Mus musculus [26]): 14.7 mg/kg; Activity (Mus musculus [28]): 436%; Activity (Mus musculus [29]): Active; Activity (Rattus norvegicus [31]): 29%
COC(=O)[C@H]1[C@H]2CCC(C[C@H]1c1ccc(C)cc1)N2C | 3850 | 1930 | 96 | 23.4 | – | 13 | 13 | 6 | -35 | -57 | 47 | -36 | – | 0 | 132 | -36 | 78 | 120 | 8 | 56 | Activity (Mus musculus [32]): 118%; Activity (Mus musculus [33]): Active; Activity (Mus musculus [34]): Active; Activity (Mus musculus [35]): Active; Activity (Mus musculus [36]): Active; Activity (Mus musculus [37]): Active; Activity (Mus musculus [38]): -51%; Activity (Mus musculus [39]): 110%; Activity (Mus musculus [40]): -15%; Activity (Rattus norvegicus [31]): 0%
COC(=O)[C@H]1C2CCC(C[C@@H]1c1ccccc1)N2C (some centres undefined) | > 10000 | – | 16 | 670 | 7.66 | – | 29 | -14 | 12 | 138 | -9 | 122 | Active | 67 | -20 | -27 | 69 | -16 | 35 | -50 | Activity (Mus musculus [32]): 12%; Activity (Mus musculus [41]): Active; Activity (Mus musculus [33]): Active; Activity (Mus musculus [42]): Active; Activity (Mus musculus [35]): Active; Activity (Mus musculus [43]): Active; Activity (Mus musculus [38]): -60%; Activity (Rattus norvegicus [24]): 100%; Activity (Mus musculus [39]): 35%; ED50 (Mus musculus [26]): 11.7 mg/kg; Activity (Mus musculus [40]): 9%
